Laboratory results from paper PMC10353061 (ACS Pharmacology & Translational Science, 2023).

What was measured:
HCT116 xenograft = assay: In vivo HCT116 xenograft tumor growth inhibition; set-up: species or system BALB/C^nu/nu mice
Description: Ten-week-old female BALB/C^nu/nu mice were inoculated subcutaneously with HCT116 cells (1 × 10^8 cells/mL) at the logarithmic growth phase. Compound 9 (100 μL, 25 mg/kg) was administered through an intraperitoneal injection every 2 days after tumorigenesis. Mice were euthanized on day 30, and tumors on the backs were collected for the measurement of tumor volume and weight.
Figure 12 Compound 9 inhibited the in vivo tumorigenicity of human colorectal cancer line HCT116. (A) Tumor tissues. (B) Top panel. The volume of tumors originating. *p < 0.05 vs. the control group; t-test; n = 4. (B) Bottom panel. The weight of tumors originating. *p < 0.05 vs. the control group; t-test; n = 4. […] Magnification 200×.
Nuclear protein Ki67 is a proliferation marker of tumor cell proliferation and is an indicator in cancer diagnosis through a biopsy.[38] CD31 is a marker of angiogenesis, along with the vascular endothelial growth factor (VEGF).[39] CD31 has been found in the angiogenetic early breast cancer tissues and is highly expressed on the surface of endothelial cells.[40]
Briefly, all 10-week-old female BALB/C^nu/nu mice (8 mice) were purchased from the Shanghai University of Traditional Chinese Medicine with Institutional Animal Care and Use Committee approval in accordance with institutional guidelines. All mice were randomly divided into […]. In the #1 group (4 mice), 1 × 10^8 cells/mL from HCT116 at the logarithmic growth phase were harvested and inoculated subcutaneously into BALB/C^nu/nu mice and intraperitoneally injected with 100 μL of compound 9 (25 mg/kg) every 2 days after tumorigenesis. In the #2 group (4 mice), 1 × 10^8 cells/mL from […] at the logarithmic growth phase were harvested and inoculated subcutaneously into BALB/C^nu/nu mice and intraperitoneally injected 100 μL of saline every 2 days after tumorigenesis. After continuous feeding for 30 days, the mice were sacrificed, and the tumors were removed. The tumors were weighed, and the volumes were calculated using the following formula: tumor volume (cm^3) = (ab^2)/2 (a: the longest axis (cm), b: the shortest axis (cm))
Briefly, fresh tissues were immersed in 4% paraformaldehyde (Sigma-Aldrich) for fixation at room temperature for 30 min. The tissues were then dehydrated in an ethanol gradient, embedded in paraffin, sectioned (thickness: 6 μm), and immersed in xylene for dewaxing. Tissue sections were blocked with an immunohistochemical blocking solution (Beyotime Biotechnology Co., Ltd., Zhejiang, China) at 37 °C for 30 min. The blocking solution was then discarded, and the sections were washed 3 times at room temperature for 5 min each with an immunohistochemical washing solution (Beyotime Biotechnology). […]

[1] = tested on: Wnt/β-catenin signaling pathway; assay: Topflash/Fopflash luciferase report assay in SW480 cells; type: cell-based; details: 30 μM
Excerpt: We synthesized derivatives 5–10 bearing 5-membered and 6-membered heterocyclic rings at the position 3′ or 4′ of the B phenyl ring. […] SW480 cells show higher Wnt activation compared to HCT116 cells.[28] […] In SW480 cells, compounds 5–10 were in the 1.75%(10)–7.32%(7) range of residual luciferase activity, except 6(28.46%), compared to 3(21.61%); in HCT116 cells, compounds 5–10 were in the 0.37%(7)–5.88%(5) range, compared to 3 (18.75%) (Table 1 and Figure 5).
Figure 5 Residual luciferase activity (%) by compounds 5–10 and reference compound 3 in SW480 cells (left panel) and HCT116 cells (right panel). Data are represented as the mean ± SD of three independent experiments, each performed in triplicate.
Briefly, the Topflash plasmid (Beyotime, Zhejiang, China) contains 7 TCF/LEF binding sites, while the Fopflash plasmid (Beyotime, Zhejiang, China) contains 6 mutated TCF/LEF binding sites, which are located in the upstream of the luciferase reporter. SW480 and HCT116 cell lines were cultured in 90% DMEM (HyClone, #SH30243.01) plus 10% fetal bovine serum (Gibco, #10270) and plasmocin (mpp-39-03, InvivoGen), respectively. The Topflash/Fopflash vector and plasmid pTK-renilla together were co-transfected to the cells. […] The Dual-Glo luciferase assay kit (Promega, #E1910) was used to measure the luminescence intensity (Figure 2).

Myc = Myc and β-catenin expression (western blot, qPCR) in LiCl-treated HCT116 cells; type: cell-based, human; details: HCT116, LiCl 50 mM, 24 h
Description: To this end, HCT116 cells were treated for 24 h with 50 mM LiCl and increasing concentrations (10–50–100 μM) of the two compounds.
Figure 7 Top panels. […] Vinculin was used as a loading control. […] Bottom panels. c-Myc mRNA levels were measured by qPCR and normalized to the expression of β-actin mRNA and expressed as fold change relative to the control sample. Results represent the mean ± SD of three independent experiments, each performed in triplicate. **p < 0.01, ***p < 0.001 as determined by ANOVA.
Briefly, total proteins from the cells in each group were subjected to 12% denaturing sodium dodecyl sulfate-polyacrylamide gel electrophoresis (SDS-PAGE). The proteins were then transferred onto a poly(vinylidene fluoride) (PVDF) membrane (Millipore). […] After the membrane was fully washed, it was incubated with secondary antibodies at 37 °C for 45 min goat anti-rabbit IgG H&L (HRP) (ab97051), Abcam, MA. The membrane was washed with Tris-buffered saline/Tween-20 (TBST) 4 times at room temperature for 14 min each time. Next, the samples were exposed and imaged (Sigma-Aldrich Chemical) using the enhanced chemiluminescence (ECL) method (Pierce Biotechnology).

[2] = 25 mg/kg i.p. every 2 days, day 30
[3] = immunofluorescence staining, 25 mg/kg i.p.

Q: `O=S(=O)(Nc1ccc(-c2ccccn2)cc1)c1ccc(Br)cc1` [Compound 9, 4-Bromo-N-(4-(pyridin-2-yl)phenyl)benzenesulfonamide] was tested. Which “tumor volume vs control group (saline)” value (HCT116 xenograft; [2]) did it give?
A: significantly smaller

Q: What about the “tumor weight vs control group (saline)” value (HCT116 xenograft; [2]) of the same compound?
A: significantly smaller

Q: What about the “expression of angiogenesis marker CD31 in tumor tissues” value (HCT116 xenograft; [3]) of the same compound?
A: significantly lower expression

Q: And the “expression of proliferation factor Ki67 in tumor tissues” value (HCT116 xenograft; [3])?
A: significantly lower expression

Q: What about the “% Luciferase Activity SW480 (residual)” value [1] of the same compound?
A: 8.75%

Q: What about the “inhibition of Myc expression” value (Myc; 10 μM) of the same compound?
A: about 2.5 fold

Q: And the “protein and mRNA levels of Myc” value (Myc; 10–50–100 μM)?
A: significant dose-dependent inhibition

Q: And the β-catenin protein levels (Myc; 10–50–100 μM)?
A: reduced only at the highest dose
